Assay results as given in patent US7943631B2, “Method of treating drug addiction using dextro-morphine” (MCW Research Foundation, Inc., priority 2007, dated 2011).
Where two headings read alike, the source gives them in different places.

Experiments:
rats [1] = test: Conditioned place preference (CPP), drugs given systemically; format: in vivo, rat; settings: for effect given alone on baseline place conditioning (CPP or conditioned place aversion): 3 μg/kg i.p. alone, rats treated s.c. with saline vehicle
[2] = cited from earlier work; for block or reversal of the (+)-morphine-induced attenuation of systemic (−)-morphine-produced antinociception: pretreatment
mice = test: Tail-flick response after intrathecal injection, mouse spinal cord; settings: for (−)-morphine-produced tail-flick inhibition after pretreatment given alone (did not affect): 10 μg intrathecal alone, 45 min before (−)-morphine 1 μg, measured 15 min after; for reversal of the (+)-morphine-induced attenuation of (−)-morphine-produced tail-flick inhibition: intrathecal with (+)-morphine 10 pg, BD1047 1-10 μg, (+)-pentazocine 0.1-10 μg, in a dose-dependent manner
[3] = test system: extracellular dopamine in the Acb shell; test: Microdialysis of extracellular dopamine in the Acb shell after microinjection into the VTA, urethane-anesthetized rats; format: in vivo, rat
Description: Groups of rats were microinjected with endomorphin-1 (1, 3 or 10 μg) or vehicle into the VTA (A). In other groups of rats, (−)-naloxone (4 or 40 ng) or vehicle was co-microinjected into the VTA with endomorphin-1 (10 μg). The perfusates from the microdialysis probe at the nucleus accumbens shell were collected every 15 min from 30 min before microinjection and continuously collected for another 120 min (A) or 105 min (B) after microinjection. The perfusates were then analyzed their dopamine level. […] (B) For the group of rats injected with different dose of (−)-naloxone+endomorphin-1 versus vehicle+endomorphin-1, Finteraction (18, 150)=3.338, Ftreatment (2, 150)=7.671, Ftime (9, 150)=11.17, *P<0.01; only the data of the dopamine level after the 0 min time point were used for the statistic analysis; the group of rats microinjected with vehicle alone in (B) was not included in the statistic analysis.
. The perfusates were then analyzed their dopamine level. […]; only the data of the dopamine level after the 0 min time point were used for statistic analysis; the vehicle pretreatment followed by vehicle microinjected group was not included in the statistic analysis.
Groups of rats were microinjected with a various dose of endomorphin-1 (1, 3 and 10 μg) or vehicle given into the VTA and the release of dopamine from the Acb shell were studied. […] The dopamine level returned to baseline 60 min thereafter (FIG. 8A). To determine if the increased release of dopamine induced by endomorphin-1 is mediated by the stimulation of μ-opioid receptors, the effect of (−)-naloxone on the increased release of dopamine induced by endomorphin-1 was then studied.

rats [4] = test system: rats
rats [5] = test: Conditioned place preference, (−)-morphine and (+)-morphine microinjected into the Acb shell; format: in vivo, rat
[6] = cited from earlier work; for production of conditioned place preference or aversion: 4 mg/kg s.c., given systemically, Mucha and Herz 1986; for block of the CPP produced by (−)-morphine: Olmstead and Burns 2005

Compound: Br.Br.CN(C)CCN(C)CCc1ccc(Cl)c(Cl)c1 [BD1047, N-[2-(3,4-Dichlorophenyl)ethyl]-N-methyl-2-(dimethylamino)ethylamine dihydrobromide]
- effect given alone on the morphine-produced CPP (rats [1]; 3 mg/kg i.p. alone, morphine sulfate 5 mg/kg s.c.): did not affect the morphine-produced CPP
- effect given alone on baseline place preference (rats [1]; 3 mg/kg i.p. alone, rats treated with saline vehicle): nor did it affect the baseline place preference
- reversal of the attenuation of (−)-morphine-produced CPP induced by (+)-morphine (rats [1]; 1, 3 or 6 mg/kg i.p. with (+)-morphine 3 μg/kg, 1 h before morphine sulfate 5 mg/kg s.c.): dose-dependently reversed the attenuation of the morphine-produced CPP
- block or reversal of the (+)-morphine-induced attenuation of systemic (−)-morphine-produced antinociception ([2]; Wu et al., 2007): blocked or reversed
- (−)-morphine-produced tail-flick inhibition after pretreatment given alone (did not affect) (mice): 9.19 ± 0.42 s
- reversal of the (+)-morphine-induced attenuation of (−)-morphine-produced tail-flick inhibition (mice): reversed

Compound: CC(C)=CCN1CCC2(C)c3cc(O)ccc3CC1C2C (single isomer, unassigned; (+)) [(+)-pentazocine]
- effect against morphine, both given spinally ([2]; 13 μg against morphine 700 ng, mice, Mei and Pasternak 2002): without effect against morphine
- effect on (−)-morphine-produced analgesia, systemic administration ([2]; 5 or 10 mg/kg, Chien and Pasternak 1994): antagonizes (−)-morphine-produced analgesia
- (−)-morphine-produced tail-flick inhibition after pretreatment given alone (did not affect) (mice): 8.89 ± 0.53 s
- reversal of the (+)-morphine-induced attenuation of (−)-morphine-produced tail-flick inhibition (mice): reversed

Compound: (−)-naloxone
- attenuation of the endomorphin-1-induced increase of extracellular dopamine ([3]; 40 ng co-administered into the VTA with endomorphin-1 10 μg): attenuated the increase of the extracellular dopamine in the Acb shell
- block or reversal of the (+)-morphine-induced attenuation of systemic (−)-morphine-produced antinociception ([2]; Wu et al., 2007): blocked or reversed

Compound: Endomorphin-1
- extracellular dopamine in the Acb shell ([3]; 10 μg into the VTA, 15 min after injection): caused an increase of the extracellular dopamine in the Acb shell
- time for the dopamine level to return to baseline ([3]; 10 μg into the VTA, thereafter): 60 min

Compound: C=CCN1CC[C@]23c4c5ccc(O)c4O[C@H]2C(=O)CC[C@]3(O)[C@H]1C5 [(+)-naloxone]
- block or reversal of the (+)-morphine-induced attenuation of systemic (−)-morphine-produced antinociception ([2]; Wu et al., 2007): blocked or reversed

Compound: CN1CCCC1c1cccnc1 (stereo not shown) [nicotine]
- production of conditioned place preference at higher dose (rats [4]; 40 μg microinjected into the Acb): produced less increase of the conditioned place preference than that of 20 μg of nicotine
- production of conditioned place preference (rats [4]; 5 to 20 μg microinjected into the Acb): dose-dependently increased the conditioned place preference

Compound: CN1CC[C@]23c4c5ccc(O)c4O[C@H]2[C@@H](O)C=C[C@H]3[C@H]1C5.O=S(=O)(O)O [(−)-morphine sulfate, (−)-Morphine sulfate]
- production of CPP at higher dose (rats [1]; rats, s.c., 10 mg/kg): produced no more increase of the CPP
- production of CPP (rats [1]; rats, s.c., 1 and 5 mg/kg): dose-dependently produced CPP
- production of conditioned place preference at higher dose (rats [5]; 10 μg into the Acb shell): produced no further increase of conditioned place preference
- production of conditioned place preference (rats [5]; 2.5 or 5 μg into the Acb shell): dose-dependently produced conditioned place preference
- production of conditioned place preference or aversion [6]: produces marked conditioned place preference

Compound: O=C1CC[C@@]2(O)[C@H]3Cc4ccc(O)c5c4[C@@]2(CCN3CC2CC2)[C@H]1O5 [naltrexone]
- block of the CPP produced by (−)-morphine [6]: blocked

Compound: C=CCN1CC[C@]23c4c5ccc(O)c4O[C@H]2/C(=N/N=C2\CC[C@@]4(O)[C@H]6Cc7ccc(O)c8c7[C@@]4(CCN6CC=C)[C@H]2O8)CC[C@@]3(O)[C@H]1C5 [naloxonazine]
- block of the CPP produced by (−)-morphine [6]: blocked

Compound: CN1CC[C@]23c4c5ccc(O)c4O[C@H]2[C@@H](O)C=C[C@H]3[C@H]1C5 [(+)-morphine]
- effect given alone on baseline place conditioning (CPP or conditioned place aversion) (rats [1]): did not affect the baseline place conditioning
- effect given alone on baseline place conditioning (CPP or conditioned place aversion) (rats [1]; listed as dextro-morphine): did not produce CPP nor conditioned place aversion
- attenuation of (−)-morphine-produced CPP at higher dose (rats [1]; i.p. pretreatment 100 μg/kg, 1 h before (−)-morphine sulfate 5 mg/kg s.c.): did not attenuate the (−)-morphine-produced CPP
- attenuation of (−)-morphine-produced CPP (rats [1]; i.p. pretreatment 0.1 to 3 μg/kg, 1 h before (−)-morphine sulfate 5 mg/kg s.c.): dose-dependently attenuated the (−)-morphine-produced CPP
- dose of maximal inhibition of the morphine-produced CPP (U-shaped dose-response curve) (rats [1]; i.p., dose range 0.1 to 100 μg/kg): 3 µg/kg
- attenuation of (−)-morphine-produced conditioned place preference (rats [5]; 0.1 to 10 pg into the Acb shell, 45 min before (−)-morphine 5 μg, same site): dose-dependently attenuated the (−)-morphine-produced conditioned place preference
- production of conditioned place preference given alone (rats [5]; 3 to 100 pg into the Acb shell, alone): did not produce any conditioned place preference
- attenuation of (−)-morphine-produced conditioned place preference at higher doses (rats [5]; 30, 100 and 1000 pg into the Acb shell, 45 min before (−)-morphine 5 μg): did not attenuate the (+)-morphine-produced conditioned place preference
- dose of maximal inhibition (U-shape dose-response curve) (rats [5]; into the Acb shell, dose range 0.1 to 1000 pg): 3 pg
- block of the endomorphin-1-induced increase of extracellular dopamine ([3]; 3 pg into the VTA, 45 min before endomorphin-1 10 μg): completely blocked the increase of the extracellular dopamine in the Acb shell
- effect on basal levels of extracellular dopamine ([3]; microinjection into the VTA): did not affect the basal levels of extracellular dopamine in the Acb shell
- block of the nicotine-produced increase of conditioned place preference at single dose (rats [4]; 0.3 pg into the Acb, nicotine 20 μg): completely block the nicotine-produced increase of the conditioned place preference
- block of the nicotine-produced increase of conditioned place preference (rats [4]; pretreatment 0.03 to 3 pg into the Acb, nicotine 20 μg): blocked dose-dependently
- production of conditioned place preference or aversion [6]: does not produce any conditioned place preference nor does it produce any conditioned place aversion
- attenuation of antinociception produced by (−)-morphine given systemically ([2]; pretreated systemically, Wu et al., 2007): attenuates the antinociception produced by (−)-morphine given systemically
- effect on (−)-morphine-produced tail-flick inhibition (mice; 10 pg intrathecal, 45 min before (−)-morphine 1 μg intrathecal): attenuated the (−)-morphine-produced tail-flick inhibition
